# Results: patent publication US5731326A, “PDGF antagonists II” (ZymoGenetics, Inc., priority 1996, dated 1998)
# Tests used:
# [1] = system: EGF; test: SRE-luciferase antagonist assay, induction by EGF; type: cell-based; details: SWISS3T3 cells, 5 hours
# Description: Initial characterization of NNC92-0270 as a non-peptide PDGF antagonist was made possible through an SRE-Luciferase high through-put assay system which involves selection of substances that are able to block expression of a serum response element (SRE)-luciferase reporter gene expressed in SWISS3T3 cells. […] The degree of antagonist specificity can be determined by comparing the resultant signal for the three growth factors (PDGF, bFGF and EGF). […]
# Following induction, luciferase activity was measured using a Promega luciferase assay kit (E1500; Promega Corp., Madison, Wis.) according to the assay kit protocol. […] The amount of luminescence (relative light units, RLU) was determined following a 1 second mix and a 1-3 integration of signal. Basal (uninduced) luciferase signal was subtracted from all measurements, and the luciferase signal induced by test samples was expressed as a percentage of the signal in the control. […]
# [2] = system: baboon smooth muscle cells; test: Wash-out study of PDGF-BB mitogenic activity on baboon smooth muscle cells; type: cell-based; details: mean +/- SD
# Description: NNC92-0270 was analyzed for prolonged inhibitory effect on PDGF-BB mitogenic activity on baboon smooth muscle cells in a wash-out experiment. Baboon SMCs were plated at 20,000 cells per well in a 24-well culture dish and grown for 2 days. The culture media was removed and replaced with Mito Media (Table 5) to allow the cells to become quiescent. The experiment was set up such that cells were treated with NNC92-0270 or vehicle control (0.5% DMSO) for either 24 hours prior to the addition of PDGF-BB, or sequentially with the addition of PDGF-BB. Those cells initially treated with NNC92-0270 or control vehicle for 24 hours, were washed with Mito Media to remove the test compound and then incubated with PDGF-BB (1 ng/ml) for an additional 24 hours. A second set of cells was treated with NNC92-0270 or vehicle control simultaneously with PDGF-BB for 24 hours. The cells were pulse labeled for 4 hours with [^3 H] thymidine (1 μCi/ml final) harvested with trypsin and counted in a Wallac Betaplate counter to determine CPM for [^3 H] thymidine incorporation.
# Acetic acid (10 mM) was used as the PDGF-BB vehicle control and 0.5% DMSO was used as the test compound control.
compound,measurement,setting,value
O=C(NN1CCCCC1)NS(=O)(=O)c1ccc(CCNC(=O)c2[nH]c3ccccc3c2OCc2ccccc2)cc1 [NNC92-0270],"Induction of SRE-luciferase, EGF IC50",[1],No activity
same,[3H] Thymidine Incorporation (cpm),"[2]; T = -24 hrs 0.5% DMSO, T = 0 hrs compound simultaneously with PDGF-BB (1 ng/ml)",678 +/- 68 cpm
same,[3H] Thymidine Incorporation (cpm),"[2]; T = -24 hrs compound, washed out, T = 0 hrs PDGF-BB (1 ng/ml)",5735 +/- 474 cpm
same,[3H] Thymidine Incorporation (cpm),"[2]; T = -24 hrs compound, washed out, T = 0 hrs acetic acid (no PDGF-BB)",237 +/- 36 cpm
